From patent publication US6514997B2, “Antipicornaviral compounds and compositions, their pharmaceutical uses, and materials for their synthesis” (Agouron Pharmaceuticals, Inc., priority 1999, dated 2003)
Like-named read-outs stand apart in the source and are kept apart here.

Tests used:
[1] = target: T1, Recombinant rhinovirus 3C protease, serotype 14 (Human rhinovirus 14, UniProt P03303); test: Inhibition of rhinovirus 3C protease (FRET assay, kobs/[I]), serotype 14; type: biochemical; details: pH 7.6, read-out: kobs/[I] (3C protease inhibition activity)
T1 construct: Recombinant rhinovirus 3C proteases; made in house
T1 sequence (P03303 1538-1719): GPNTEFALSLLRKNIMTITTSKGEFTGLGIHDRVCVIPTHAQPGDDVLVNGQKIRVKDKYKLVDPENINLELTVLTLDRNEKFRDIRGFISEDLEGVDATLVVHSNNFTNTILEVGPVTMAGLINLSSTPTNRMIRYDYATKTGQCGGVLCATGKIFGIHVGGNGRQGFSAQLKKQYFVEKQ
Outline: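 kobs/[I] values came from progress curves of reactions started by adding 50-100 nM protease to buffer (50 mM tris pH 7.6, 1 mM EDTA, 2% DMSO) containing compound and ~1 μM quenched DABCYL-EDANS substrate. Rising EDANS fluorescence reported cleavage.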

H1-HeLa cells = test: Cytotoxicity (CC50) in mock-infected H1-HeLa cells, XTT dye reduction; type: cell-based, human
Outline: (§1)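 XTT dye reduction (formazan, 450/650 nm) in H1-HeLa cells, mock-infected, gave CC50.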

[2] = as above; type: cell-based, human; details: human, H1-HeLa cells, mock-infected
Outline: as §1

[3] = tested on: strains of human rhinovirus (HRV); test: Antirhinoviral H1-HeLa cell culture assay (XTT cell protection, EC50), other HRV strains; type: cell-based, human rhinovirus in H1-HeLa cells
Outline: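 Protection of H1-HeLa cells from rhinovirus was scored two days post-infection via XTT dye reduction read at 450/650 nm, alongside mock-infected cells for toxicity. CC50/EC50 gives the therapeutic index.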

HRV-14 = test: Antirhinoviral H1-HeLa cell culture assay (XTT cell protection, EC50), HRV-14; type: cell-based, human rhinovirus (HRV) serotype-14 in H1-HeLa cells; details: Rhinovirus B, HRV14, H1-HeLa
Outline: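 XTT dye reduction (450/650 nm) measured survival of H1-HeLa cells two days after HRV-14 infection at m.o.i. 0.13 in the presence of compound, giving EC50. The therapeutic index is CC50 divided by EC50.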

[4] = H1-HeLa, HRV-1A, read-out: EC50
[5] = Human rhinovirus sp., HRV9, H1-HeLa, HRV-9, read-out: EC50
[6] = Human rhinovirus sp., HRV10, H1-HeLa, HRV-10, read-out: EC50
[7] = Human rhinovirus sp., HRV25, H1-HeLa, HRV-25, read-out: EC50
[8] = Human rhinovirus sp., HRV3, H1-HeLa, HRV-3, read-out: EC50
[9] = Human rhinovirus sp., HRV16, H1-HeLa, HRV-16, read-out: EC50
[10] = Human rhinovirus sp., HRV39, H1-HeLa, HRV-39, read-out: EC50
[11] = Human rhinovirus sp., HRV87, H1-HeLa, HRV-87, read-out: EC50
[12] = Human rhinovirus sp., HRV13, H1-HeLa, HRV-13, read-out: EC50
[13] = Human rhinovirus sp., HRV78, H1-HeLa, HRV-78, read-out: EC50

SMILES	kinact/KI ([1]; HRV-14 3C protease)	CC50 (H1-HeLa cells; HRV-9)	CC50 at 2 days ([2]; HRV-14)	EC50 [3, 4]	EC50 [3, 5]	EC50 [3, 6]	EC50 [3, 7]	EC50 (HRV-14)	kinact/KI ([1]; HRV-14)	CC50 (H1-HeLa cells; line of HRV-2)	CC50 (H1-HeLa cells; line of HRV-3)	CC50 (H1-HeLa cells; line of HRV-9)	CC50 (H1-HeLa cells; line of HRV-16)	CC50 (H1-HeLa cells; line of HRV-25)	CC50 (H1-HeLa cells; line of HRV-39)	CC50 at 2 days ([2]; line of HRV-14)	EC50 ([3]; H1-HeLa, HRV-2, read-out: EC50)	EC50 [3, 8]	EC50 [3, 9]	EC50 [3, 10]	further results
Cc1cc(C(=O)Nc2cccn([C@@H](Cc3ccc(F)c(F)c3)C(=O)N[C@H](/C=C/C(=O)OC3CCCCCC3)C[C@@H]3CCNC3=O)c2=O)no1 [Compound 56, trans-(2′S,3″″″S,4S)-4-[3′-(3″,4″-Difluorophenyl)-2′-(3′″-{[1″″-(5′″″-methylisoxazol-3′″″-yl)methanoyl]aminol}-2″″-oxo-2″″H-pyridin-1″″-yl)propanoylamino]-5-(2″″″-oxopyrrolidin-3″″″-yl)pent-2-enoic Acid Cycloheptyl Ester]	99000 M⁻¹ s⁻¹	> 10000 nM	> 10000 nM	504 nM	546 nM	158 nM	400 nM	163 nM	–	–	–	–	–	–	–	–	–	–	–	–	CC50 (H1-HeLa cells; HRV-1A): > 10000 nM; CC50 (H1-HeLa cells; HRV-10): > 10000 nM; CC50 (H1-HeLa cells; HRV-25): > 10000 nM
CCOC(=O)/C=C/[C@H](C[C@@H]1CCNC1=O)NC(=O)[C@@H]1CCc2ccc(NC(=O)c3cc(C)on3)c(=O)n21 [Compound 37, trans-(3′S,3′″S,4S)-4-({6′-[(5″-Methylisoxazole-3″-carbonyl)amino]-5′-oxo-1′,2′,3′,5′-tetrahydroindolizine-3′-carbonyl}amino)-5-(2′″-oxopyrrolidin-3′″-yl)-pent-2-enoic Acid Ethyl Ester]	–	–	–	108 nM	121 nM	41 nM	–	162 nM	177000 M⁻¹ s⁻¹	> 10000 nM	> 10000 nM	> 10000 nM	> 10000 nM	> 10000 nM	> 10000 nM	> 10000 nM	37 nM	43 nM	72 nM	16 nM	CC50 (H1-HeLa cells; line of HRV-1A): > 10000 nM; CC50 (H1-HeLa cells; line of HRV-10): > 10000 nM; CC50 (H1-HeLa cells; line of HRV-87): > 10000 nM; EC50 ([3]; Human rhinovirus sp., HRV25, H1-HeLa): 162 nM; EC50 [3, 11]: 58 nM
CCOC(=O)/C=C/[C@H](C[C@@H]1CCNC1=O)NC(=O)[C@@H]1CCc2c(Cl)cc(NC(=O)c3cc(C)on3)c(=O)n21 [Compound 39, trans-(3′S,3′″S,4S)-4-({8′-Chloro-6′-[(5″-methylisoxazole-3″-carbonyl)amino]-5′-oxo-1′,2′,3′,5′-tetrahydroindolizine-3′-carbonyl}amino)-5-(2′″-oxopyrrolidin-3′″-yl)-pent-2-enoic Acid Ethyl Ester]	–	–	–	42 nM	48 nM	88 nM	107 nM	40 nM	200000 M⁻¹ s⁻¹	> 10000 nM	> 10000 nM	> 10000 nM	> 10000 nM	> 10000 nM	> 10000 nM	> 10000 nM	16 nM	39 nM	57 nM	48 nM	CC50 (H1-HeLa cells; line of HRV-1A): > 10000 nM; CC50 (H1-HeLa cells; line of HRV-10): > 10000 nM; CC50 (H1-HeLa cells; line of HRV-87): > 10000 nM; EC50 [3, 11]: 17 nM
C#CC[C@@H](C(=O)N[C@H](/C=C/C(=O)OC1CCCCC1)C[C@@H]1CCNC1=O)n1cccc(NC(=O)c2cc(C)on2)c1=O [Compound 55, trans-(2′S,3′″″S,4S)-4-[2′-(3″-{[1′″-(5″″-Methylisoxazol-3″″-yl)methanoyl]amino}-2′″-oxo-2′″H-pyridin-1′″-yl)pent-4″-ynoylamino]-5-(2′″″-oxopyrrolidin-3′″″-yl)pent-2-enoic Acid Cyclohexyl Ester]	34000 M⁻¹ s⁻¹	> 10000 nM	> 10000 nM	520 nM	531 nM	195 nM	515 nM	173 nM	–	–	–	–	–	–	–	–	–	–	–	–	CC50 (H1-HeLa cells; HRV-1A): > 10000 nM; CC50 (H1-HeLa cells; HRV-10): > 10000 nM; CC50 (H1-HeLa cells; HRV-25): > 10000 nM
Cc1cc(C(=O)Nc2cccn([C@@H](Cc3ccc(F)c(F)c3)C(=O)N[C@H](/C=C/C(=O)OC(C)(C)C)C[C@@H]3CCNC3=O)c2=O)no1 [Compound 46]	–	–	–	182 nM	151 nM	135 nM	188 nM	6 nM	350000 M⁻¹ s⁻¹	> 10000 nM	> 10000 nM	> 10000 nM	> 10000 nM	> 10000 nM	> 10000 nM	> 10000 nM	145 nM	45 nM	160 nM	227 nM	CC50 (H1-HeLa cells; line of HRV-1A): > 10000 nM; CC50 (H1-HeLa cells; line of HRV-10): > 10000 nM; CC50 (H1-HeLa cells; line of HRV-11): > 10000 nM; CC50 (H1-HeLa cells; line of HRV-13): > 10000 nM; CC50 (H1-HeLa cells; line of HRV-19): > 10000 nM; CC50 (H1-HeLa cells; line of HRV-23): > 10000 nM; CC50 (H1-HeLa cells; line of HRV-78): > 10000 nM; CC50 (H1-HeLa cells; line of HRV-Hanks): > 10000 nM; EC50 ([3]; H1-HeLa, HRV-23, read-out: EC50): 11 nM; EC50 ([3]; Human rhinovirus sp., H1-HeLa, HRV-Hanks, read-out: EC50): 5 nM; EC50 ([3]; Human rhinovirus sp., HRV11, H1-HeLa, HRV-11, read-out: EC50): 3 nM; EC50 [3, 12]: 78 nM; EC50 ([3]; Human rhinovirus sp., HRV19, H1-HeLa, HRV-19, read-out: EC50): 20 nM; EC50 [3, 13]: 25 nM
C#CC[C@@H](C(=O)N[C@H](/C=C(\C)C(=O)OCC)C[C@@H]1CCNC1=O)n1cccc(NC(=O)c2cc(C)on2)c1=O [Compound 44, trans-(2′S,3′″″S,4S)-2-Methyl-4-[2′-(3″-{[1′″-(5″″-methylisoxazol-3″″-yl)methanoyl]amino}-2′″-oxo-2′″H-pyridin-1′″-yl)pent-4″-ynoylamino]-5-(2′″″-oxopyrrolidin-3′″″-yl)pent-2-enoic Acid Ethyl Ester]	–	–	–	–	–	562 nM	1220 nM	1460 nM	12500 M⁻¹ s⁻¹	> 10000 nM	–	–	> 10000 nM	> 10000 nM	> 10000 nM	> 10000 nM	1180 nM	–	1090 nM	> 1000 nM	CC50 (H1-HeLa cells; line of HRV-10): > 10000 nM
C#CC[C@@H](C(=O)N[C@H](/C=C/C(=O)OC1CCCCCC1)C[C@@H]1CCNC1=O)n1cccc(NC(=O)c2cc(C)on2)c1=O [Compound 57, trans-(2′S,3′″″S,4S)-4-[2′-(3″-{[1′″-(5″″-Methylisoxazol-3″″-yl)methanoyl]amino}-2′″-oxo-2′″H-pyridin-1′″-yl)pent-4″-ynoylamino]-5-(2′″″-oxopyrrolidin-3′″″-yl)pent-2-enoic Acid Cycloheptyl Ester]	47000 M⁻¹ s⁻¹	> 10000 nM	> 10000 nM	1610 nM	1500 nM	482 nM	511 nM	422 nM	–	–	–	–	–	–	–	–	–	–	–	–	CC50 (H1-HeLa cells; HRV-1A): > 10000 nM; CC50 (H1-HeLa cells; HRV-10): > 10000 nM; CC50 (H1-HeLa cells; HRV-25): > 10000 nM
CC[C@@H](C(=O)N[C@H](/C=C/C(=O)OC(C)(C)C)C[C@@H]1CCNC1=O)n1cccc(NC(=O)c2cc(C)on2)c1=O [Compound 34, trans-(2′S,3″″S,4S)-4-(2′-{3″-[(5′″-Methylisoxazole-3′″-carbonyl)amino]-2″-oxo-2″H-pyridin-1″-yl}butyrylamino)-5-(2″″-oxopyrrolidin-3″″-yl)pent-2-enoic Acid tert-Butyl Ester]	–	–	–	–	593 nM	–	923 nM	122 nM	45100 M⁻¹ s⁻¹	> 10000 nM	> 10000 nM	> 10000 nM	> 10000 nM	> 10000 nM	> 10000 nM	> 10000 nM	154 nM	61 nM	543 nM	441 nM	CC50 (H1-HeLa cells; line of HRV-87): > 10000 nM; EC50 [3, 11]: 33 nM
Cc1cc(C(=O)Nc2cccn([C@@H](Cc3ccc(F)cc3)C(=O)N[C@H](/C=C/C(=O)OC(C)C)C[C@@H]3CCNC3=O)c2=O)no1 [Compound 67, trans-(2′S,3″″″S)-4-[3′-(4″-Fluorophenyl)-2′-(3′″-{[1″″-(5′″″-methylisoxazol-3′″″-yl)methanoyl]amino}-2″″-oxo-2″″H-pyridin-1″″-yl)propanoylamino]-5-(2″″″-oxopyrrolidin-3″″″-yl)pent-2-enoic Acid Isopropyl Ester]	462000 M⁻¹ s⁻¹	> 10000 nM	> 10000 nM	–	162 nM	–	–	57 nM	–	–	–	–	–	–	–	–	–	19 nM	33 nM	38 nM	CC50 (H1-HeLa cells; HRV-3): > 10000 nM; CC50 (H1-HeLa cells; HRV-13): > 10000 nM; CC50 (H1-HeLa cells; HRV-16): > 10000 nM; CC50 (H1-HeLa cells; HRV-39): > 10000 nM; CC50 (H1-HeLa cells; HRV-78): > 10000 nM; EC50 [3, 12]: 162 nM; EC50 [3, 13]: 48 nM
